Assay results: ChEMBL document CHEMBL1154867, “Cytotoxic halogenated metabolites from the Brazilian red alga Laurencia catarinensis” (J Nat Prod, 2010)
pIC50: −log10 of the molar value.

Tests used:
Format in all cases: functional, cell-based
[1] = system: HT-29; assay: Cytotoxicity against human HT-29 cells after 24 hrs by MTT assay; conditions: HT-29, 24 h
[2] = system: MCF7; assay: Cytotoxicity against human MCF7 cells after 24 hrs by MTT assay; conditions: MCF7, 24 h
[3] = system: A-431; assay: Cytotoxicity against human A431 cells after 24 hrs by MTT assay; conditions: A-431, 24 h

CC1(C)O[C@@](C)([C@@H]2CC[C@@](C)(Cl)[C@H](Br)C2)CC[C@H]1Br
pIC50 [1]: < 4.00
pIC50 [2]: < 4.00
pIC50 [3]: < 4.00

CC(=O)O[C@H]1C[C@H](Br)C(C)(C)O[C@@]1(C)[C@@H]1CC[C@@](C)(Cl)[C@H](Br)C1 [ACETYLCAESPITOL]
pIC50 [1]: 4.79
pIC50 [2]: 4.75
pIC50 [3]: 4.76

CC(=O)O[C@H]1C[C@@](C)(Cl)[C@H](Br)C[C@@H]1[C@]1(C)OC(C)(C)[C@@H](Br)C[C@@H]1O
pIC50 [1]: 4.91
pIC50 [2]: 4.93
pIC50 [3]: 4.88

CC1(C)O[C@](C)([C@H]2CC[C@](C)(Cl)[C@@H](Br)C2)[C@H](O)C[C@H]1Br [CAESPITOL]
pIC50 [1]: 5.12
pIC50 [2]: 5.01
pIC50 [3]: 4.99

CC(=O)O[C@H]1C[C@@](C)(Cl)[C@H](Br)C[C@@H]1[C@]1(C)OC(C)(C)[C@@H](Br)C[C@@H]1OC(C)=O
pIC50 [1]: < 4.00
pIC50 [2]: < 4.00
pIC50 [3]: < 4.00

CC1(C)O[C@@](C)([C@@H]2CC[C@](C)(Br)[C@@H](Cl)C2)CC[C@@H]1Br [DEOXY ISOCAESPITOL]
pIC50 [1]: 4.56
pIC50 [2]: 4.50
pIC50 [3]: 4.51

CC1(C)O[C@@](C)([C@@H]2CC[C@@](C)(Cl)[C@H](Br)C2)CC[C@@H]1Br [DEOXYCAESPITOL]
pIC50 [1]: 4.90
pIC50 [2]: 4.95
pIC50 [3]: 4.88

CC(=O)O[C@H]1C[C@H](Br)C(C)(C)O[C@@]1(C)[C@H]1C[C@@H](Br)[C@](C)(Cl)C[C@@H]1O
pIC50 [1]: 4.15
pIC50 [2]: 4.13
pIC50 [3]: 4.14

CC1(C)O[C@@](C)([C@@H]2CC[C@](C)(Br)[C@@H](Cl)C2)[C@@H](O)C[C@@H]1Br [ISOCAESPITOL]
pIC50 [1]: < 4.00
pIC50 [2]: < 4.00
pIC50 [3]: < 4.00

CC1(C)C=CC(=O)[C@](C)([C@@H]2CC[C@@](C)(Cl)[C@H](Br)C2)O1 [CAESPITENONE]
pIC50 [1]: 4.72
pIC50 [2]: 4.71
pIC50 [3]: 4.67

CO[C@]1(C)OC(=O)C=C1[C@@H]1CC[C@@](C)(Cl)[C@H](Br)C1 (relative stereo)
pIC50 [1]: < 4.00
pIC50 [2]: < 4.00
pIC50 [3]: < 4.00

CCCCCCCCCCCCCCCCOP(=O)([O-])OCC[N+](C)(C)C [MILTEFOSINE]
pIC50 [1]: 4.31
pIC50 [2]: 4.37
pIC50 [3]: 4.27

C[C@]1(O)OC(=O)C=C1[C@@H]1CC[C@@](C)(Cl)[C@H](Br)C1 [FUROCAESPITANELACTOL]
pIC50 [1]: < 4.00
pIC50 [2]: < 4.00
pIC50 [3]: < 4.00

CC(=O)O[C@H]1C[C@@](C)(Cl)[C@H](Br)C[C@@H]1[C@@]1(C)CC[C@H](Br)C(C)(C)O1
pIC50 [1]: 4.31
pIC50 [2]: 4.28
pIC50 [3]: 4.26

CO[C@@]1(C)OC(=O)C=C1[C@@H]1CC[C@@](C)(Cl)[C@H](Br)C1 (relative stereo)
pIC50 [1]: 4.07
pIC50 [2]: 4.05
pIC50 [3]: 4.04
